# Reference: patent US20240246913A1, “2-CARBOXYL-INDOLE INHIBITORS OF METALLO-BETA-LACTAMASES” (Oxford University Innovation Limited, priority 2021, published 2024)
# Counter-ions that a name gives are not always drawn.
# Legend:
# Type in all cases: biochemical
# VIM-1 = VIM-1 (Pseudomonas aeruginosa, UniProt A0A0F7KYQ8); assay: MBL inhibition, FC-5 fluorescence assay, VIM-1; conditions: FC-5 cephalosporin substrate, ranges of obtained pIC50, read-out: pIC50 VIM-1 (converted)
# Description: (§1) Inhibitors were tested using a panel of the clinically relevant B1 MBLs (NDM-1, VIM-1, -2 and IMP-1). Activities were assayed by monitoring the release of a fluorophore following the enzymatic breakdown of the cephalosporin FC-5 (https://pubs.acs.org/doi/abs/10.1021/jm400769b). FC-5 assays were conducted in clear bottomed 384 black well microplates (Greiner); the initial rate of reaction was assessed by monitoring the fluorescence intensity (λex=380 nm and λem=460 nm) using a Pherstar FS (BMG LabTech) plate reader. Initial rates of reaction were determined and dose-response analyses conducted in GraphPad Prism. Dose-response curves were fitted using the log(inhibitor) vs normalized response—variable slope model of GraphPad Prism 12. Each concentration point for routine screening was conducted with 4 intra-plate replicates.
# NDM-1 = NDM-1 (Klebsiella pneumoniae, UniProt C7C422); assay: MBL inhibition, FC-5 fluorescence assay, NDM-1; conditions: FC-5 cephalosporin substrate, fluorescence; ranges of obtained pIC50; read-out: pIC50 NDM-1 (converted)
# Sequence of NDM-1 (C7C422 29-270, looked up, species assumed): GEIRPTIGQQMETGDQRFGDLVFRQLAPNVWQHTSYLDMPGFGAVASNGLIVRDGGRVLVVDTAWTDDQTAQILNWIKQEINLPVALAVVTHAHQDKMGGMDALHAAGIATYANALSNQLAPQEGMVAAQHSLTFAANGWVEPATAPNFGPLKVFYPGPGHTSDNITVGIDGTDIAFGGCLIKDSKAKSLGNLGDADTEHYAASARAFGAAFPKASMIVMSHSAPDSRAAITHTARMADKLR
# Description: as §1
# IMP-1 = IMP-1 (Serratia marcescens, UniProt P52699); assay: MBL inhibition, FC-5 fluorescence assay, IMP-1; conditions: FC-5 cephalosporin substrate, fluorescence; ranges of obtained pIC50; read-out: pIC50 IMP-1 (converted)
# Sequence of IMP-1 (P52699 19-246, looked up, species assumed): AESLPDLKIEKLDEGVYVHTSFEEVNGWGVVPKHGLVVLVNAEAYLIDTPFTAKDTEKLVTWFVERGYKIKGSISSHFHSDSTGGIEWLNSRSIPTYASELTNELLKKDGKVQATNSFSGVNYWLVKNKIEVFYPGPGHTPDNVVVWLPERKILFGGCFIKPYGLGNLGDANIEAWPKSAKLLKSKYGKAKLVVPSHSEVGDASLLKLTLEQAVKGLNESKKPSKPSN
# Description: as §1
# VIM-2 = VIM-2 (Escherichia coli, UniProt Q5U7L7); assay: MBL inhibition, FC-5 fluorescence assay, VIM-2; conditions: FC-5 cephalosporin substrate, ranges of obtained pIC50, read-out: pIC50 VIM-2 (converted)
# Description: as §1
Compound,IC50 (VIM-1),IC50 (NDM-1),IC50 (IMP-1),IC50 (VIM-2)
"CC(c1cccs1)c1cccc2c(-c3ccc(CS(C)(=O)=O)c(F)c3)c(C(=O)O)[nH]c12 (stereo not shown) [IC-4, 3-(3-Fluoro-4-((methylsulfonyl)methyl)phenyl)-7-(1-(thiophen-2-yl)ethyl)-1H-indole-2-carboxylic acid]",1 to 10 nM,1 to 10 nM,1 to 10 nM,1 to 10 nM
C[C@@H](c1cccc2cc(C(=O)O)[nH]c12)N1C[C@]2(C[C@@H](CN)C2)OC1=O [IC-30],> 10 nM,> 10 nM,> 10 nM,> 10 nM
"CC(c1nn[nH]n1)c1cccc2c(-c3ccc(CS(C)(=O)=O)c(F)c3)c(C(=O)O)[nH]c12 (stereo not shown) [IC-9, 7-(1-(2H-Tetrazol-5-yl)ethyl)-3-(3-fluoro-4-((methylsulfonyl)methyl)phenyl)-1H-indole-2-carboxylic acid]",> 10 nM,> 10 nM,> 10 nM,> 10 nM
"CC(c1cccc2c(-c3ccc(CS(C)(=O)=O)c(F)c3)c(C(=O)O)[nH]c12)n1cc(CCCNC(=N)N)oc1=O (stereo not shown) [IC-73, 3-(3-Fluoro-4-((methylsulfonyl)methyl)phenyl)-7-(1-(5-(3-guanidinopropyl)-2-oxooxazol-3(2H)-yl)ethyl)-1H-indole-2-carboxylic acid hydrochloride]",1 to 10 nM,0.1 to 1 nM,> 10 nM,1 to 10 nM

# Further lines, results first:
IC50 (VIM-1),IC50 (NDM-1),IC50 (IMP-1),IC50 (VIM-2),Compound
> 10 nM,1 to 10 nM,> 10 nM,1 to 10 nM,"CC(Nc1ncc(CCCN)o1)c1cccc2c(-c3ccc(CS(C)(=O)=O)c(F)c3)c(C(=O)O)[nH]c12 (stereo not shown) [IC-93, 7-(1-((5-(3-Aminopropyl)oxazol-2-yl)amino)ethyl)-3-(3-fluoro-4-((methylsulfonyl)methyl)phenyl)-1H-indole-2-carboxylic acid]"
1 to 10 nM,0.1 to 1 nM,> 10 nM,1 to 10 nM,"CC(c1cccc2c(-c3ccc(CS(C)(=O)=O)c(F)c3)c(C(=O)O)[nH]c12)n1cc(CCCN(C)C)oc1=O (stereo not shown) [IC-75, 7-(1-(5-(3-(Dimethylamino)propyl)-2-oxooxazol-3(2H)-yl)ethyl)-3-(3-fluoro-4-((methylsulfonyl)methyl)phenyl)-1H-indole-2-carboxylic acid]"
> 10 nM,1 to 10 nM,> 10 nM,1 to 10 nM,"CC(Nc1ncc(CCN)o1)c1cccc2c(-c3ccc(CS(C)(=O)=O)c(F)c3)c(C(=O)O)[nH]c12 (stereo not shown) [IC-94, 7-(1-((5-(2-aminoethyl)oxazol-2-yl)amino)ethyl)-3-(3-fluoro-4-((methylsulfonyl)methyl)phenyl)-1H-indole-2-carboxylic acid]"
> 10 nM,0.1 to 1 nM,> 10 nM,> 10 nM,"CS(=O)(=O)Cc1ccc(-c2c(C(=O)O)[nH]c3c(COCc4ccc(CN)cc4)cccc23)cc1F [IC-85, 7-(((4-(Ammoniomethyl)benzyl)oxy)methyl)-3-(3-fluoro-4-((methylsulfonyl)methyl)phenyl)-1H-indole-2-carboxylate]"
> 10 nM,1 to 10 nM,> 10 nM,> 10 nM,"CC(c1cccc2c(-c3ccc(CS(C)(=O)=O)c(F)c3)c(C(=O)O)[nH]c12)n1cc(CO)oc1=O (stereo not shown) [IC-78, 3-(3-Fluoro-4-((methylsulfonyl)methyl)phenyl)-7-(1-(5-(hydroxymethyl)-2-oxooxazol-3(2H)-yl)ethyl)-1H-indole-2-carboxylic acid]"
> 10 nM,> 10 nM,> 10 nM,0.1 to 1 nM,"CC(NC(=O)C[C@H]1CC[C@H](N)CC1)c1cccc2c(-c3ccc(CS(C)(=O)=O)c(F)c3)c(C(=O)O)[nH]c12 (mixture of isomers) [IC-100, 7-[1-[[2-(4-Aminocyclohexyl)acetyl]amino]ethyl]-3-[3-fluoro-4-(methylsulfonylmethyl)phenyl]-1H-indole-2-carboxylic acid]"
